# Data reported in ChEMBL document CHEMBL1156305 (Bioorg Med Chem Lett, 2010).
# The source made the active and inactive calls. No cut-off for these calls is given here.
# Experiments:
# [1] = molecular target: T1, 5-hydroxytryptamine receptor 2C (Homo sapiens, UniProt P28335); assay: Agonist activity at 5HT2C receptor; assay type: functional
# T1 sequence (P28335 whole entry): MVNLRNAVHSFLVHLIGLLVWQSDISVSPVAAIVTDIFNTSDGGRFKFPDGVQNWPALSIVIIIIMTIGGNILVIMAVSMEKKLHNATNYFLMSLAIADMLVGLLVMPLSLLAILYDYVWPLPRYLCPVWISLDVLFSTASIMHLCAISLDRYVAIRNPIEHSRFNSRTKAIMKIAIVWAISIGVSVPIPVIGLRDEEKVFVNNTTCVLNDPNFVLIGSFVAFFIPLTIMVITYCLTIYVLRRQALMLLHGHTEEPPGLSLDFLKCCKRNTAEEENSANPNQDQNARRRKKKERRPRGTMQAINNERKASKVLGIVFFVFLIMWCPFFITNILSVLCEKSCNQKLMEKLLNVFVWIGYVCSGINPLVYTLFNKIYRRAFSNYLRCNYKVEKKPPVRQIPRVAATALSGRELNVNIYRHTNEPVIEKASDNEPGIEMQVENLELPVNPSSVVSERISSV
# [2] = molecular target: T2, 5-hydroxytryptamine receptor 2C (Homo sapiens) (UniProt P28335); assay: Agonist activity at 5HT2C receptor relative to control; assay type: functional; set-up: concentration or dose not given beside the values
# T2 sequence (whole entry): T1 sequence (P28335 whole entry)
# [3] = molecular target: T1, 5-hydroxytryptamine receptor 2C; assay: Binding affinity to 5HT2C receptor
# [4] = molecular target: T3, 5-hydroxytryptamine receptor 2B (Homo sapiens, UniProt P41595); assay: Binding affinity to 5HT2B receptor
# [5] = molecular target: T3, 5-hydroxytryptamine receptor 2B; assay: Agonist activity at 5HT2B receptor; assay type: functional
# [6] = molecular target: T4, 5-hydroxytryptamine receptor 2A (Homo sapiens, UniProt P28223); assay: Binding affinity to 5HT2A receptor
# [7] = molecular target: T4, 5-hydroxytryptamine receptor 2A; assay: Agonist activity at 5HT2A receptor; assay type: functional
# [8] = Half life in human hepatocytes; assay type: ADME, cell-based, Liver, Hepatocyte
# Macaca mulatta = organism: Macaca mulatta; assay: Activity at MAPK in monkey heart valve […] cells
# Rattus norvegicus [9] = assay: Inhibition of spontaneous nocturnal food intake in po dosed Sprague-Dawley rat measured up to 25 hrs; assay type: functional, organism-based
# Plasma = assay: Fraction unbound in Sprague-Dawley rat plasma; assay type: ADME, cell-free
# [10] = Selectivity ratio of Ki for 5HT2B receptor to Ki for 5HT2C receptor
# [11] = Ratio of drug level in RBC to plasma in Sprague-Dawley rat; assay type: ADME; conditions: in vivo
# Rattus norvegicus [12] = organism: Rattus norvegicus; assay: Ex vivo agonist activity at 5HT2B receptor in rat stomach fundus; assay type: functional, organism-based
# [13] = Ratio of total drug level in brain to plasma in Sprague-Dawley rat; assay type: ADME, cell-free; conditions: brain and plasma
# Rattus norvegicus [14] = assay: Inhibition of spontaneous nocturnal food intake in po dosed Sprague-Dawley rat measured up to 840 mins; assay type: functional, organism-based
# [15] = molecular target: T4, 5-hydroxytryptamine receptor 2A; assay: Agonist activity at 5HT2A receptor relative to control; assay type: functional
# [16] = Bioavailability in dog; assay type: ADME, organism-based, Canis lupus familiaris; conditions: in vivo
# [17] = Half life in human liver microsomes; assay type: ADME, Microsome
# [18] = Ratio of free drug level in brain to plasma in Sprague-Dawley rat; assay type: ADME, cell-free; conditions: brain and plasma
# Rattus norvegicus [19] = organism: Rattus norvegicus; assay: Effect on 5HT2A receptor-mediated head twitches in rat; assay type: functional, organism-based
# [20] = Bioavailability in rat; assay type: ADME, organism-based; conditions: in vivo
# T4 sequence (P28223 whole entry): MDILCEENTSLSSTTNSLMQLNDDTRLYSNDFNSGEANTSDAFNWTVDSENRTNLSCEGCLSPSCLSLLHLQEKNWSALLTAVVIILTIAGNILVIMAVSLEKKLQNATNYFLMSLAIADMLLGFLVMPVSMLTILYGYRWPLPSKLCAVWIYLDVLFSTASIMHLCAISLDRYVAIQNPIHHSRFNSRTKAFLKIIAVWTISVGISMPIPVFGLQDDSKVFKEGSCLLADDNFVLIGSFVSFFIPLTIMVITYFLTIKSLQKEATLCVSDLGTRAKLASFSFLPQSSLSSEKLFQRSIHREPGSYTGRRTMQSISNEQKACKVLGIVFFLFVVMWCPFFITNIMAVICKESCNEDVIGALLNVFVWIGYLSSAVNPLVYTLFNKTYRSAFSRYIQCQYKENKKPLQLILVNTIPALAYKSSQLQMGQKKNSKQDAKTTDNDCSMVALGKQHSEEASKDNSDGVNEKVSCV
# T3 sequence (P41595 whole entry): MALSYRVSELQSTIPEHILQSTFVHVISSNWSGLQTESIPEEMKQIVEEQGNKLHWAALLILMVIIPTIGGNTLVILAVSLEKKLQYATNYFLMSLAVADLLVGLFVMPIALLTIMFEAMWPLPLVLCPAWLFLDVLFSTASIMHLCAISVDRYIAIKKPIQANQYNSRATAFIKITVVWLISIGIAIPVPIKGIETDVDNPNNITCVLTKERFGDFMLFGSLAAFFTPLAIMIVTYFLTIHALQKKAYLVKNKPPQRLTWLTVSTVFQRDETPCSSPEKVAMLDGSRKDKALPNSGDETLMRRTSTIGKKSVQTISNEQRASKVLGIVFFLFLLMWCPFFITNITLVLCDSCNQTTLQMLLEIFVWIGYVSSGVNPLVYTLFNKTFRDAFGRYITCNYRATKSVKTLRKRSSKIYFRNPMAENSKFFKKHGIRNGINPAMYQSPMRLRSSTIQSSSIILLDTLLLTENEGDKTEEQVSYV
Compound,EC50 [1],Activity [2],Ki [3],Ki ([4]; read-out: Ki),other results
O=C(NCc1ccc(Oc2cccc(F)c2)cc1)[C@@H]1CCCN1,0.038 µM,46%,0.023 µM,2.4 µM,–
Cc1noc(C)c1COc1cc(F)c(COC(=O)N2[C@H](C)CNC[C@@H]2C)c(F)c1,–,–,0.043 µM,> 10 µM,–
COc1cc(OCC2CCCCC2)c(F)cc1CNC(=O)[C@@H]1CCCN1,0.00497 µM,85%,0.0017 µM,–,EC50 [5]: 4.03 µM; Ki [6]: Not Active; EC50 [7]: 0.5 µM; Ki [4]: Not Active
COc1cc(OC2CCC(C)(C)CC2)c(F)cc1CNC(=O)[C@@H]1CCCN1,0.0023 µM,95%,0.0009 µM,3.94 µM,half-life [8]: 7.33 h; Activity (Macaca mulatta): inactive; Activity (Rattus norvegicus [9]): Dose-dependent effect; fraction unbound (Plasma): 3.6%; Ratio Ki [10]: 10000; Ratio [11]: 0.7; Activity (Rattus norvegicus [12]): inactive; Kp [13]: 10; Activity (Rattus norvegicus [14]): Dose-dependent effect; Activity [15]: 76%; EC50 [5]: > 10 µM; bioavailability [16]: 5.5%; half-life [17]: 1.67 h; Ki ([6]; read-out: Ki): 0.0128 µM; Kp uu [18]: 0.4; EC50 [7]: 0.44 µM; Activity (Rattus norvegicus [19]): inactive; bioavailability [20]: 5.5%
NCc1cccc(C(=O)NCc2ccc(OC(F)(F)F)cc2)c1,–,–,0.585 µM,–,–
O=C(NCc1ccc(OC(F)(F)F)cc1)[C@@H]1CCCN1,–,–,0.324 µM,> 10 µM,Ratio Ki [10]: > 1000
CC1(C)CCC(Oc2cc(F)c(CNC(=O)[C@@H]3CCCN3)cc2F)CC1,0.001 µM,88%,0.0018 µM,1.67 µM,Activity [15]: 98%; EC50 [5]: > 10 µM; Ki ([6]; read-out: Ki): 0.0137 µM; EC50 [7]: 0.13 µM
C[C@H]1CC[C@@H](Oc2c(F)cc(CNC(=O)[C@@H]3CCCN3)cc2F)CC1,0.044 µM,46%,0.025 µM,–,EC50 [5]: > 10 µM; Ki [6]: Not Active; EC50 [7]: 0.153 µM; Ki [4]: Not Active
O=C(NCc1ccc(-c2cc(Cl)cc(Cl)c2)cc1)[C@@H]1CCCN1,0.183 µM,65%,0.008 µM,–,–
O=C(NCc1ccc(OC(F)(F)F)cc1)C1CCNC1 (centres undefined),–,–,0.643 µM,–,–
O=C(NCc1ccc(-c2ccc(Cl)cc2)cc1F)N1CCNCC1,–,–,0.004 µM,3.5 µM,–
O=C(NCc1ccc(OCc2ccccc2)cc1)[C@@H]1CCCN1,0.073 µM,40%,0.02 µM,1.72 µM,–
C[C@@H]1CNC[C@H](C)N1C(=O)OCc1ccccc1,–,–,0.083 µM,–,–
O=C(NCc1ccc(C2CCCCC2)cc1)[C@@H]1CCCN1,0.088 µM,53%,0.0044 µM,4.12 µM,–
